Measurements taken from patent US10414789B2, “Compositions comprising cyclic purine dinucleotides having defined stereochemistries and methods for their preparation and use” (ADURO BIOTECH, INC., priority 2012, dated 2019).

Key:
[1] = tested on: snake venom phosphodiesterase (SVPD); settings: 1 mg SVPD overnight at 37° C.; then 100 μM on DC2.4 cells; FIG. 8
[2] = tested on: DC2.4 cells; assay: IFN-β induction by CDNs in DC2.4 antigen presenting cells (L929-ISRE luciferase reporter readout); type: cell-based, mouse; settings: for relative level of IFN-β induced: DC2.4 cells incubated with 5, 20 and 100 μM CDN for 30 minutes, culture fluids after 4 hours, RLU in L929-ISRE reporter cells, FIG. 7; for level of IFN-β expression compared to c-di-GMP or c-di-AMP: cyclic dinucleotides not incubated with SVPD, 100 μM, DC2.4 cells, FIG. 8
Procedure: To measure the level of induced IFN-β, cell culture fluids from each sample were collected after 4 hours, and 10 μL was added to 5×10^4 L929-ISRE luciferase reporter cells cultured in RPMI media+10% FBS.

[3] = tested on: TRAMP-C2 tumor cells; assay: Anti-tumor efficacy of CDNs formulated with GVAX in a subcutaneous murine prostate cancer model; type: in vivo, C57BL/6 mice; settings: by day 52 post tumor implantation; s.c. vaccination on days 4 and 11; FIG. 12
Procedure: The relative in vivo anti-tumor efficacy of the Rp, Rp dithio c-di-AMP and unmodified c-di-AMP derivatives were evaluated in a subcutaneous mouse model of prostate cancer. The derivative molecules were formulated with 1×10^6 irradiated whole TRAMP-C2 murine prostate tumor cells expressing GM-CSF (GVAX). Groups of 5 male C57BL/6 mice were implanted with 1×10^5 TRAMP-C2 tumor cells subcutaneous in the footpad. On days 4 and 11 post tumor implantation, mice were administered vaccinations subcutaneous in the flank of either GVAX alone, or GVAX formulated with RR-CDA or CDA, and compared to HBSS control. Tumor growth was monitored by calipers, and tumor volume was calculated.

[4] = tested on: THP1-Blue human monocytes; assay: IFN-β induction in THP1-Blue human monocytes (IRF-inducible SEAP reporter); type: cell-based; settings: FIG. 15
Procedure: To determine the relative potency of the prodrug form of c-di-GMP to activate the innate immune response, relative levels of IFN-β induced in a human monocyte cell line were assessed. […] Cell culture supernatants from each sample were collected after 4 hours. 10 μL of the cell culture supernatants was added to QUANTI-Blue reagent (Invivogen) and incubated for 15-30 minutes. Absorbance at 655 nm was measured using a Model 680 spectrophotometer (BioRad).

[5] = tested on: OVA-specific CD8+ T cell responses; assay: OVA-specific CD8 T cell responses in splenocytes by intracellular cytokine staining after vaccination with CDN prodrug; type: in vivo, C57BL/6 mice; settings: 5 μg CDN prodrug with 10 μg OVA and Addavax, s.c. twice, splenocytes 7 days post second vaccination; FIG. 16
Procedure: To assess the ability of the mono-2′-O-myristoyl c-di-GMP (“mono-2′-O-myristoyl CDG”) derivative to induce in vivo immune responses, OVA-specific CD8 T cell responses were measured in splenocytes at 7 days post second vaccination in conjunction with CDN treatment. To test the ability of mono-2′-O-myristoyl c-di-GMP relative to stimulate an OVA-specific immune responses, vaccines were prepared by combining 10 μg of OVA protein (EndoFit OVA, Invivogen) and Addavax (2% squalene final) with either 0 (Control) or 5 μg of mono-2′-O-myristoyl c-di-GMP derivative (“mono-2′-O-myristoyl CDG”), in a total volume of 100 μL. Groups of five female C57BL/6 mice (H-2b) were immunized twice subcutaneously (s.c) in the base of the tail with the vaccine preparations, and the OVA-specific CD8+ T cell responses in the spleens were determined by intracellular cytokine staining 7 days later. 1×10^6 splenocytes were unstimulated or stimulated with 1 μM of MHC class I (OVA257-264 SIINFEKL; SL8) peptide overnight and IFN-γ production was measured by flow cytometer on a BD FACSVerse.

[6] = tested on: OVA-specific CD4+ and CD8+ T cell responses; assay: OVA-specific CD4+ and CD8+ T cell responses in PBMC by IFN-γ ELISpot after vaccination with OVA/Addavax plus CDN; type: in vivo, C57BL/6 mice; settings: once s.c., PBMC 10 days post vaccination, FIG. 9
Procedure: To test the enhanced in vivo immunogenicity of Rp, Rp dithio c-di-GMP relative to unmodified c-di-GMP molecules, OVA-specific CD4+ and CD8+ T cell responses were measured in PBMCs at 10 days post vaccination in conjunction with CDN treatment. Vaccines were prepared by combining 10 μg of OVA protein (EndoFit OVA, InVivogen) and Addavax (2% squalene final) with either 25 μg or 5 μg of cyclic dinucleotide, in a total volume of 100 μL. Groups of five female C57BL/6 mice (H-2b) were immunized once subcutaneously (s.c) in the base of the tail with the vaccine preparations, and the OVA-specific CD4+ and CD8+ T cell responses in the peripheral blood mononuclear cell (PBMC) compartment were determined by ELISpot analysis 10 days later. 1×10^5 PBMCs and 1×10^5 splenocyte feeder cells isolated from aged-matched naïve C57BL/6 mice were un-stimulated or stimulated with 1 μM of MHC class II peptide (OVA265-280 TEWTSSNVMEERKIKV) or MHC class I (OVA257-264 SIINFEKL) peptide overnight and IFN-γ spot forming cells were measured, as described previously.

[7] = tested on: SIV gag-specific CD8+ and CD4+ T cell responses; assay: SIV gag-specific CD8 and CD4 T cell responses by IFNγ ELISpot after vaccination with SIV gag protein plus CDN; type: in vivo, C57BL/6 mice; settings: 1 ug CDN with 10 ug SIV gag protein in 2% squalene-in-water, s.c. twice 20 days apart, spleens six days after second vaccination; FIG. 10
Procedure: To further assess the immunogenicity of Rp, Rp dithio c-di-GMP relative to unmodified c-di-GMP molecules, SIV gag-specific CD8+ and CD4+ T cell responses were measured. Five C57BL/6 mice per group were immunized subcutaneously twice with either 1 ug Rp, Rp dithio c-di-GMP or saline control formulated in 2% squalene-in-water with 10 ug SIV gag protein. Vaccinations were separated by 20 days, and spleens were harvested six days after the second vaccination. Immune responses were measured to SIV gag-specific CD8 (AL11, SIV gag312-322, A) and CD4 (DD13, SIV gag300-312, B) T cell epitopes by IFNγ ELISpot assay. Plates were scanned and spot forming cells (SFC) per well were enumerated using an ImmunoSpot analyzer (CTL).

[8] = tested on: OVA257-specific CD8 T cell responses; assay: OVA-specific CD8 T cell memory and expansion in PBMC by intracellular cytokine staining after prime-boost vaccination; type: in vivo, C57BL/6 mice
Procedure: (§1) To establish the enhanced immunogenicity and accompanying protective immunity induced by Rp, Rp dithio c-di-GMP relative to unmodified c-di-GMP, OVA-specific CD8 T cell responses measured in PBMC and protective immunity assessed against lethal bacterial challenge. Vaccines were prepared by combining 10 μg of OVA protein (EndoFit OVA, InVivogen) and Addavax (2% squalene final) with 25 μg of cyclic dinucleotide, in a total volume of 100 μL. Groups of five female C57BL/6 mice (H-2^b) were immunized twice subcutaneously (s.c) in the base of the tail with the vaccine preparations. The interval between the prime and boost immunizations was 36 days. The magnitude of both the memory and expansion phases of the OVA257-specific CD8 T cell responses in PBMC were quantified by intracellular cytokine staining (ICS) analysis at both 27 days post-boost vaccination and at 3 days post challenge with a 2× lethal dose (LD)50 dose (1×10^5 colony forming units; CFU) of OVA-expressing wild-type Listeria monocytogenes (WT Lm-OVA). For ICS analysis, 1×10^5 PBMCs from test mice combined with 1×10^5 splenocyte feeder cells isolated from aged-matched naïve C57BL/6 mice were un-stimulated or stimulated with 1 μM of MHC class I peptide (OVA257-264 SIINFEKL) for 5 hrs. in the presence of Brefeldin A, and IFN-γ production was measured by flow cytometry on a BD FACSVerse.

[9] = tested on: OVA-expressing wild-type Listeria monocytogenes (WT Lm-OVA); assay: Protective immunity against lethal WT Lm-OVA challenge (spleen CFU); type: in vivo, C57BL/6 mice; settings: i.v. 2×LD50 (1×10^5 CFU) WT Lm-OVA at 27 days post boost; spleens 3 days later; FIG. 11C
Procedure: as §1, with “FACSVerse. […]” for “FACSVerse.”

In the case of `Nc1nc2c(ncn2[C@@H]2O[C@@H]3COP(=O)(O)O[C@H]4[C@@H](O)[C@H](n5cnc6c(=O)[nH]c(N)nc65)O[C@@H]4COP(=O)(O)O[C@H]3[C@H]2O)c(=O)[nH]1` [c-di-GMP, reference compound], the “level of IFN-β expression after incubation of the CDN with SVPD versus without SVPD” value (from here on “level … with SVPD versus without SVPD”) [1] is reported as “significantly lower”.

For `Nc1ncnc2c1ncn2C1OC2COP(=O)(S)OC3C(COP(=O)(S)OC2C1O)OC(n1cnc2c(N)ncnc21)C3O` (stereo not drawn) [Rp, Sp dithio c-di-AMP, dithio [Rp,Sp] c-di-AMP], the “relative level of IFN-β induced” value [2] was “lower than the level induced by both the Rp, Rp dithio c-di-GMP and the Rp, Rp dithio c-di-AMP diastereomers as well as the native c-di-GMP and c-di-AMP molecules”.

With `Nc1ncnc2c1ncn2C1OC2COP(=O)(S)OC3C(COP(=O)(S)OC2C1O)OC(n1cnc2c(N)ncnc21)C3O` (stereo not drawn) [Rp, Rp dithio c-di-AMP, dithio [Rp,Rp] c-di-AMP] the “relative level of IFN-β induced” value [2] was “induced significantly higher levels of IFN-β than either the c-di-GMP or c-di-AMP unmodified cyclic dinucleotide molecules”, the “level of IFN-β expression compared to c-di-GMP or c-di-AMP” value [2] was “greater” and the “anti-tumor efficacy compared to GVAX alone or GVAX formulated with unmodified c-di-AMP” value [3] was “increased anti-tumor potency”. The “level … with SVPD versus without SVPD” value [1] was “equivalent”.

In the case of `Nc1ncnc2c1ncn2[C@@H]1O[C@@H]2COP(=O)(O)O[C@H]3[C@@H](O)[C@H](n4cnc5c(N)ncnc54)O[C@@H]3COP(=O)(O)O[C@H]2[C@H]1O` [c-di-AMP, reference compound], the “level … with SVPD versus without SVPD” value [1] is reported as “significantly lower”.

For `CCCCCCCCCCCCCC(=O)OC1C2OP(=O)(O)OCC3OC(n4cnc5c(=O)[nH]c(N)nc54)C(O)C3OP(=O)(O)OCC2OC1n1cnc2c(=O)[nH]c(N)nc21` (stereo not drawn) [mono-2′-O-myristoyl c-di-GMP], the “levels of IFN-β induced compared to unmodified c-di-GMP and background (HBSS)” value ([4]; 100 μM for 30 minutes, supernatants after 4 hours, absorbance at 655 nm) was “significantly higher levels of IFN-β” and the “OVA-specific CD8 T cell immune responses compared to Control vaccines” value [5] was “greater immune responses”.

With `Nc1nc2c(ncn2[C@@H]2O[C@@H]3CO[P@@](=O)(S)O[C@H]4[C@@H](O)[C@H](n5cnc6c(=O)[nH]c(N)nc65)O[C@@H]4CO[P@@](=O)(S)O[C@H]3[C@H]2O)c(=O)[nH]1` [Rp, Rp dithio c-di-GMP, dithio [Rp,Rp] c-di-GMP] the “relative level of IFN-β induced” value [2] was “induced significantly higher levels of IFN-β than either the c-di-GMP or c-di-AMP unmodified cyclic dinucleotide molecules”, the “level of IFN-β expression compared to c-di-GMP or c-di-AMP” value [2] was “greater” and the “magnitude of antigen-specific CD8+ T cell responses compared to 5 μg or 25 μg of unmodified c-di-GMP” value ([6]; 5 μg CDN) was “greater”. The “CD4+ and CD8+ OVA-specific T cell responses compared to unmodified c-di-GMP” value ([6]; same amount of CDN adjuvant (25 μg or 5 μg)) was “of greater magnitude”, the “SIV gag-specific CD8 and CD4 T cell responses compared to saline control” value [7] was “significantly higher” and the “OVA-specific CD8 T cell memory compared to unmodified c-di-GMP adjuvanted vaccines” value ([8]; 25 μg CDN, s.c. prime and boost 36 days apart, PBMC 27 days post-boost, FIG. 11A) was “higher magnitude of OVA-specific CD8 T cell memory”. The “expansion of OVA-specific memory CD8 T cells following challenge, compared to unmodified c-di-GMP adjuvanted vaccines” value ([8]; 3 days post challenge with 2× LD50 WT Lm-OVA, FIG. 11A) was “expanded to a higher magnitude”, the “magnitude of OVA-specific CD8 T cell memory” value ([8]; FACS plot, FIG. 11B, 25 μg CDN adjuvanted vaccine) was ~30 % of the total CD8 T cell population in PBMC and the “protection against virulent pathogen challenge (spleen colonies)” value [9] was “complete protection (below the limit of detection, LOD)”. The “IFN-β induction compared to Rp, Sp dithio c-di-GMP and unmodified c-di-GMP” value ([4]; human monocyte cell line) was “superior induction” and the “level … with SVPD versus without SVPD” value [1] was “equivalent”.

In the case of `Nc1nc2c(ncn2[C@@H]2O[C@@H]3CO[P@@](O)(=S)O[C@H]4[C@@H](O)[C@H](n5cnc6c(=O)[nH]c(N)nc65)O[C@@H]4CO[P@](O)(=S)O[C@H]3[C@H]2O)c(=O)[nH]1` [Rp, Sp dithio c-di-GMP, dithio [Rp,Sp] c-di-GMP], the “relative level of IFN-β induced” value [2] is reported as “lower than the level induced by both the Rp, Rp dithio c-di-GMP and the Rp, Rp dithio c-di-AMP diastereomers as well as the native c-di-GMP and c-di-AMP molecules”.
